Measurements taken from PMC11206828, “Catalytic Differences between Flavohemoglobins of Giardia intestinalis and E. coli” (Pathogens, 2024).
Entries after “also recorded” stand apart in the source; their conditions may differ. Like-named read-outs stand apart in the source and are kept apart here.

Columns and labels:
[1] = target: T1, E. coli flavohemoglobin (Hmp) (Escherichia coli, UniProt P24232); test: Nitric oxide dioxygenase (NOD) inhibition assay, Hmp; type: biochemical; details: for Ki / TN (turnover number from the inhibition fit), Hmp: pH 6.5, 37 °C
Procedure: (§1) The inhibitor was included in the assay solution before the addition of PROLI-NONOate. Inhibitors were also preincubated in the enzyme stock solutions at the same concentration. […] All inhibition experiments were done using the same enzyme preparations. Each assay at a particular concentration of inhibitor was measured in triplicate or more. […] To determine inhibition constants Ki, rate data obtained at different inhibitor concentrations were fit to the equation for non-competitive inhibition nonlinear regression (Equation (1)) using Graphpad Prism software. (1) v=Vmax/(Km,NO+[NO])1+[I]/Ki

[2] = target: T2, Giardia flavohemoglobin (gFlHb) (Giardia intestinalis, UniProt E2RTZ4); test: biochemical
T2 sequence (E2RTZ4 1-458): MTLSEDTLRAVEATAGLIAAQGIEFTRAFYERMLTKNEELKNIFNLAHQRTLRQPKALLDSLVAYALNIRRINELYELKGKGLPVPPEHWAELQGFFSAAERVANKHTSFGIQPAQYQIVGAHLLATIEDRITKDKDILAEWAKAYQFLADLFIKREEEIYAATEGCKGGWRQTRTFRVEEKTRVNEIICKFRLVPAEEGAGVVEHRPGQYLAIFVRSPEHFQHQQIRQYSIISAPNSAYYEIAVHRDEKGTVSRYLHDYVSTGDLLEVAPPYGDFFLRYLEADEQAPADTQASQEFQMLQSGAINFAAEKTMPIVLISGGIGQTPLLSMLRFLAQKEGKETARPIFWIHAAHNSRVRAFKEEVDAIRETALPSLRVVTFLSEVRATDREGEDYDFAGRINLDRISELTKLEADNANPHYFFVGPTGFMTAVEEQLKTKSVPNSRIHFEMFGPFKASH
Procedure: To determine NOD activity, Michaelis constant, and enzyme inhibition, rate assays were performed on a World Precision Instruments free radical analyzer (WPI, Sarasota, FL, USA) equipped with an NO-sensitive electrode and a temperature probe, connected to an analog digital converter controlled by Labscribe software, version 4 (iWorx, Dover, NH, USA).
Assays were conducted on a 6 mL scale in cropped 50 mL Falcon tubes in a buffer containing 0.1 M Bis-Tris (pH 6.5) and 100 μM NADH. To minimize protein adhesion to the walls of the chamber, 0.25 mg/mL bovine serum albumin (BSA; Fisher Scientific, Ottawa, ON, Canada) was added. […] Reactions were run at 37 °C in a stirred cell block heater with a four-placed machined aluminum block that matched the taper of the Falcon tubes. With this block arrangement up to four assay solutions could be warmed to the desired temperature beforehand. Upon thermal equilibration to 37 °C, the NO donor compound PROLI-NONOate (Cayman Chemical, Ann Arbor, MI, USA) prepared in 10 mM NaOH was added; 2 moles of NO are released per mole of donor. At the peak of NO release, which occurred within several seconds, flavohemoglobin and FAD were added to a final concentration of 2 nM and 10 nM, respectively. NOD activity was measured as the initial rate of NO signal decrease over the first 15 to 30 s of the reaction. […] Rate data were fitted to the Michaelis–Menten equation by nonlinear regression using Graphpad Prism software, version 9.4.1 (Dotmatics, Boston MA, USA).
as §1

[3] = target: T1, E. coli flavohemoglobin (Hmp); set-up: method as in PMID 10777548; details: 37 °C and pH 7; cited from earlier work
[4] = target: T2, Giardia flavohemoglobin (gFlHb); test: NOD activity and Michaelis constants, gFlHb; type: biochemical; details: pH 6.5, 37 °C
[5] = target: T2, Giardia flavohemoglobin (gFlHb); details: cited from earlier work
ferric gFlHb = ferric gFlHb (Giardia intestinalis, UniProt E2RTZ4); details: read-out: Binding constant KD, ferric gFlHb; optical titration, 0.1 M Bis-Tris pH 6.5, 3.5 μM flavohemoglobin, nitrite 0 to 750 μM
Procedure: (§2) Titrations of ferric gFlHb and Hmp were performed in 0.1 M Bis-Tris buffer (BioShop, Burlington, ON, Canada) pH 6.5 on a Cary 400 Bio UV-visible spectrophotometer (Agilent Technologies, Mississauga, ON, Canada).

ferric Hmp = ferric Hmp (Escherichia coli, UniProt P24232); details: optical titration, 0.1 M Bis-Tris pH 6.5
Procedure: as §2

[6] = pH 6.5, 37 °C, 100 μM NADH, 1 μM NO
[7] = pH 6.5, 37 °C, 100 μM NADH, 1 μM NO, imidazole and nitrite: Ki of the inhibitor-sensitive phase of a biphasic fit, read-out: Nitric oxide dioxygenase inhibition constant Ki, gFlHb

T1 sequence (P24232 whole entry): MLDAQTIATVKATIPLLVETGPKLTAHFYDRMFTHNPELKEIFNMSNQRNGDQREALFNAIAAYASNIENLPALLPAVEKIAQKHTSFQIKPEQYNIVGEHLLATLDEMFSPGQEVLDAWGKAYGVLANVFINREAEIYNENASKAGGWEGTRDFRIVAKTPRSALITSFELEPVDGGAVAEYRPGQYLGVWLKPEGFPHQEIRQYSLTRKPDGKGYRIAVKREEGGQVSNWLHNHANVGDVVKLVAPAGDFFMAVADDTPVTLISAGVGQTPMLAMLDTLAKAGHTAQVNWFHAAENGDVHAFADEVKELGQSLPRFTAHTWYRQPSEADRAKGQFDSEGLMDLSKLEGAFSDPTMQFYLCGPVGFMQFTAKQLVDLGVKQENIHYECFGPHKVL
Chain of ferric Hmp (P24232 whole entry): as above

Compound: Cn1ccnc1 [1-methylimidazole]
- Ki ([1]; Inhibition constant, Hmp (bound), NOD inhibition): > 1000 µM
- Ki ([1]; Nitric oxide dioxygenase inhibition constant Ki, Hmp, 100 μM NADH, 1 μM NO, imidazole: Ki of the inhibitor-sensitive phase of a biphasic fit): 1400 ± 250 µM
- TN (turnover number from the inhibition fit), Hmp ([1]; 100 μM NADH, 1 μM NO): 38 ± 2 s⁻¹
- Ki [2]: 1200 ± 300 µM
- Ki ([2]; Inhibition constant, gFlHb (bound), NOD inhibition, pH 6.5, 37 °C): > 1000 µM
- TN (turnover number from the inhibition fit), gFlHb [2, 6]: 25 ± 1 s⁻¹

Compound: nitric oxide [NO]
- Michaelis constants of Hmp (KmNO, KmNADH, KmO2) [3]: 0.28 µM
- Michaelis constant KmNO, gFlHb ([4]; NADH held at 100 μM, NO up to 3 μM): 0.65 ± 0.09 µM

Compound: O=O [oxygen]
- Michaelis constant of gFlHb for oxygen [5]: 22 ± 7 µM
- Michaelis constants of Hmp (KmNO, KmNADH, KmO2) [3]: approximately 100 μM

Compound: c1c[nH]cn1 [Imidazole, imidazole]
- TN (turnover number from the inhibition fit), Hmp ([1]; 100 μM NADH, 1 μM NO): 33 ± 1 s⁻¹
- Ki ([1]; read-out: Nitric oxide dioxygenase inhibition constant Ki, Hmp, 100 μM NADH, 1 μM NO, imidazole: Ki of the inhibitor-sensitive phase of a biphasic fit): 69 ± 10 µM
- TN (turnover number from the inhibition fit), gFlHb [2, 6]: 22 ± 1 s⁻¹
- Ki [2, 7]: 20 ± 6 µM

Compound: NC(=O)C1=CN([C@@H]2O[C@H](COP(=O)(O)OP(=O)(O)OC[C@H]3O[C@@H](n4cnc5c(N)ncnc54)[C@H](O)[C@@H]3O)[C@@H](O)[C@H]2O)C=CC1 [NADH, nicotinamide adenine dinucleotide]
- Michaelis constants of Hmp (KmNO, KmNADH, KmO2) [3]: 4.8 µM
- Michaelis constant KmNADH, gFlHb ([4]; NO held at 2 μM, NADH up to 200 μM): 22 ± 4 µM

Compound: O=NO [Nitrite, nitrite]
- Kd (ferric gFlHb): 180 ± 20 µM
- Effect on NOD activity of Hmp ([1]; concentrations up to 2 mM): not significantly affected; also recorded: no significant effect
- Optical differences of Hmp in the presence of nitrite (KD) (ferric Hmp): too small to permit any such calculation
- TN (turnover number from the inhibition fit), gFlHb [2, 6]: 23 ± 1 s⁻¹
- Ki [2, 7]: 32 ± 12 µM
